PMC11224403, “Des-acyl ghrelin reduces alcohol intake and alcohol-induced reward in rodents” (Translational Psychiatry, 2024)

Key:
male and female rats = experiment: Intermittent-access alcohol drinking, repeated DAG injections; format: in vivo, Rcc Han Wistar rats; settings: for 4-h alcohol intake, overall / 24-h alcohol intake, overall: repeated DAG 1 mg/kg IP at three drinking sessions
Source text: Male and female Rcc Han Wistar rats (8–12 weeks old at arrival; Envigo, Horst, Netherlands) were used for the alcohol drinking and locomotor activity experiments as they drink alcohol to intoxicating levels. For in vivo microdialysis studies male Wistar rats (Charles River, Calco, Italy) were used as they display robust dopamine levels in NAc shell after alcohol injection. […] All rodents were allowed to habituate to the animal facility at least one week before they entered an experiment. During housing (20 °C with 50% humidity) the rodents had free access to water and standard chow (Teklad Rodent Diet; Envigo, Madison, WI, USA). These experiments were approved by the Ethics Committee for Animal Experiments (ethical numbers: 1457/18, 3276/18, 1556/18, 3348/20; Gothenburg, Sweden) and followed the ARRIVE guidelines. The sample sizes of each experiment were based on previous experience in which statistical significance has been detected. The person who conducted the experiments, and analyzed the collected data was aware of the treatment allocation. Only preset exclusion criteria were used when analyzing the data obtained in attempts to exclude confounding factors in analyzing data. In the alcohol drinking experiments leaking bottles and low alcohol consumption (<3.0 g/kg for males; <3.5 g/kg for females) were preset exclusion criteria. The preset exclusion criterion in the ex vivo HPLC-EC, ELISA, and recombinant cell line experiments was contamination of the sample. Misplaced probes, technical difficulties, and damages to the surgery area were preset exclusion criteria for the in vivo microdialysis experiment. Intra-cage male aggression was the preset exclusion criterion for the locomotor activity and CPP experiments. To minimize tentative confounding factors, the order of treatments was stratified, with treatments being mixed for each animal cage and for each apparatus used as well as balancing the alcohol intake between future treatment groups. Although each experiment only was performed once, they were separated over different laboratory days with equal data obtained between sessions.
Alcohol (95%; Solveco AB, Stockholm, Sweden) was either diluted to a 20% solution using tap water (drinking experiment) or to a 15% (w/v) solution with 0.9% NaCl. Alcohol was in the behavioral and neurochemical tests injected (intraperitoneally, IP) 5 min before the test. A dose of 1.75 g/kg was used in male mice as it causes robust locomotor stimulation and induces a CPP [37–39], and 2 g/kg was used for rats as it elevates the dopamine levels in NAc shell. DAG (Tocrise Bioscience, Bristol, UK) was dissolved in 0.9% NaCl in doses (0.25–2 mg/kg) known to reduce food intake and DAG was injected IP).
Individually housed rats had intermittent access to an alcohol (20%) bottle and a water bottle, three 24-h sessions per week, and only water bottles the remaining days. A reversed light/dark cycle was used, and the bottles were changed when the lights went out. First, the rats consumed alcohol for 10 weeks (baseline drinking), where the bottles and food were weighed daily and the body weight weekly. During treatments, the bottles and food were weighed at 4- and/or 24-h and the body weight was measured daily. In the first drinking experiment, the potential of DAG to reduce alcohol consumption was tested and therefore, vehicle or DAG (1 mg/kg) was acutely injected into male (n = 12) or female (n = 12) rats. The second drinking experiment was conducted to establish the effects of lower DAG doses on alcohol intake. Therefore, separate male (n = 18) or female (n = 18) rats, were acutely injected with lower DAG doses (0.5 or 0.25 mg/kg) or vehicle. The third alcohol drinking experiment evaluated the ability of repeated DAG injections to lower alcohol drinking. Therefore, additional male (n = 24) and female (n = 24) rats were injected with either vehicle or DAG (1 mg/kg) at three alcohol-drinking sessions. […]

SERT = experiment: Transporter inhibition in recombinant cell line, SERT; format: cell-based, human; settings: 8.3 µM DAG; recombinant cells, 3 h incubation, fluorescence dye
[1] = female rats, repeated DAG 1 mg/kg IP
[2] = female rats, n = 7 vs vehicle n = 9
[3] = female rats, repeated DAG 1 mg/kg IP, drinking session 2, n = 7 vs vehicle n = 9
[4] = female rats, repeated DAG 1 mg/kg IP, n = 7 vs vehicle n = 9
[5] = male rats, repeated DAG 1 mg/kg IP
[6] = male rats, n = 8 vs vehicle n = 8

des-acyl ghrelin (GSSFLSPEHQRVQQRKESKKPPAKLQPR; Ghrelin-28 non-acylated; UniProt Q9UBU3 24-51, looked up) [DAG, non-octanoylated form of ghrelin; purchased from Tocris (printed Tocrise Bioscience), dissolved in 0.9% NaCl]
alcohol preference (male and female rats; [1]): remained unaltered by repeated injections of DAG | body weight (male and female rats; [1]): not affected by repeated DAG treatment | total fluid intake (male and female rats; [1]): remained unaltered by repeated injections of DAG | water intake (male and female rats; [1]): remained unaltered by repeated injections of DAG | 4-h alcohol intake, overall (male and female rats; [2]): overall reduced the alcohol consumption at the 4-h time point (treatment F1,14 = 9.17, P = 0.0090 **; time F2,28 = 12.63, P = 0.0001; interaction F2,28 = 1.02, P = 0.3754) | 24-h alcohol intake, overall (male and female rats; [2]): An overall decline in 24-h alcohol intake was observed (treatment F1,14 = 14.72, P = 0.0018 **; time F2,28 = 2.91, P = 0.0711; interaction F2,28 = 6.43, P = 0.0051 ##) | 4-h alcohol intake, session 2 (male and female rats; [3]): a decrease specifically evident at alcohol drinking session 2 (P = 0.0158) | 4-h food intake, session 2 (male and female rats; [3]): The lowered food intake by DAG was found at alcohol drinking session 2 (P = 0.0475) | 4-h food intake, overall (male and female rats; [4]): A lowered food intake by repeated DAG injections was observed at the 4-h (treatment F1,14 = 4.80, P = 0.0460 *; time F2,28 = 4.79, P < 0.0001; interaction F2,28 = 0.57, P = 0.5742) | 24-h food intake (male and female rats; [4]): not at the 24-h time point (treatment F1,14 = 0.53, P = 0.4798; time F2,28 = 1.68, P = 0.2049; interaction F2,28 = 0.19, P = 0.8269) | body weight (male and female rats; [5]): unchanged after repeated DAG injections | preference for alcohol (male and female rats; [5]): unchanged after repeated DAG injections | water intake (male and female rats; [5]): unchanged after repeated DAG injections | 4-h alcohol intake, overall (male and female rats; [6]): overall decrease in alcohol intake at the A 4-h time point (treatment F1,14 = 5.12, P = 0.0401 *; time F2,28 = 1.87, P = 0.1754; interaction F2,28 = 0.59, P = 0.5622) | 24-h alcohol intake, overall (male and female rats; [6]): An overall reduction in alcohol intake was observed after DAG injections (treatment F1,14 = 1.96, P = 0.1836; time F2,28 = 3.44, P = 0.0460; interaction F2,28 = 4.34, P = 0.0228 #) | total fluid intake, 24-h (male and female rats; male rats, repeated DAG 1 mg/kg IP, 24 h): overall decline in the total fluid intake at the 24-h time point (P = 0.0304) | 24-h alcohol intake, session 2 (male and female rats; male rats, repeated DAG 1 mg/kg IP, drinking session 2, n = 8 per group): specifically at alcohol drinking session 2 (P = 0.0324) | 4-h alcohol intake, session 3 (male and female rats; male rats, repeated DAG 1 mg/kg IP, drinking session 3, n = 8 per group): specifically lower after DAG at alcohol drinking session 3 (P = 0.0256) | 4-h food intake (male and female rats; male rats, repeated DAG 1 mg/kg IP, n = 8 per group (4-h statistics)): did not alter the food intake at any time point (4-h: treatment F1,14 = 1.41, P = 0.2546; time F2,28 = 6.86, P = 0.0045; interaction F2,28 = 0.05, P = 0.9518 | 24-h food intake (male and female rats; male rats, repeated DAG 1 mg/kg IP, n = 8 per group (24-h statistics)): 24-h: treatment F1,14 = 0.55, P = 0.4727; time F2,28 = 13.79, P < 0.0001; interaction F2,28 = 1.03, P = 0.3707 | inhibition of SERT (SERT): no inhibition
